Laboratory results as given in patent US20230067378A1, “COMPOSITIONS AND METHODS FOR THE TREATMENT OF ESTROGEN-DEPENDENT DISORDERS” (ObsEva S.A., priority 2018, published 2023).

How the values were obtained:
β17-estradiol (E2) = test: circulating E2 concentration, same clinical trial; assay type: in vivo, human; details: for median E2 level: Delayed-ABT cohort, Compound (VI) alone
Description: The experiments described in this example were conducted as part of a single-center, open-label, randomized, parallel-group clinical trial in 32 pre-menopausal women. Following screening assessments, and during the second half of the menstrual cycle, women received norethindrone (5 mg, three-times daily for 10 days) to synchronize menstrual cycles. After menstrual cycle synchronization, subjects were randomized with a 1:1 ratio to one of two treatment arms: (i) a cohort receiving once-daily administration of compound (VI) (200 mg per day, administered in the form of a choline salt) with concurrent onset of add-back therapy administration for 10 weeks (“Concurrent-ABT”), or (ii) a cohort receiving pre-treatment with compound (VI) (200 mg per day, administered in the form of a choline salt) for 4 weeks followed by combined daily administration of compound (VI) and add-back therapy (“Delayed-ABT”). The add-back therapy used in these experiments contained 1.0 mg of E2 and 0.5 mg of norethindrone acetate, and was administered to subjects once daily.
The main treatment outcomes and endpoints measured during these experiments included (i) a qualitative assessment of uterine blood loss, which was recorded on a daily basis throughout the study by characterizing each subject's bleeding pattern using one of the following four categories: “no bleeding,” “spotting” (light staining, dark blood, no sanitary protection needed or only panty liner), “bleeding” (1-4 completely soiled maxi sanitary towels or 1-8 soiled tampons or equivalent combination of the two), or “heavy bleeding” (>4 completely soiled maxi sanitary towels or >8 soiled tampons or equivalent combination of the two); (ii) a bi-weekly assessment of each subject's circulating E2 concentration; (iii) a bi-weekly assessment of each subject's circulating progesterone concentration (measured using a validated commercial chemiluminescence immunoassay method (Elecsys Progesterone III, Roche, Burgess Hill, UK)); (iv) the pharmacokinetic profile of compound (VI) and the add-back therapy; and (v) adverse events.

[1] = half-life in a human patient; details: in vivo, also the choline salt (VIa)

Work on COc1cc(F)c(-n2c(=O)[nH]c3csc(C(=O)O)c3c2=O)cc1OCc1c(OC)ccc(F)c1F [Compound (VI), 3-[2-fluoro-5-(2,3-difluoro-6-methoxybenzyloxy)4-methoxyphenyl]-2,4-dioxo-1,2,3,4-tetrahydrothieno [3,4d]pyrimidine-5-carboxylic acid] yielded a median E2 levels, window never left (β17-estradiol (E2); Concurrent-ABT cohort, whole study) of 20 to 50 pg/mL, a median E2 level (β17-estradiol (E2); by week 2) of 3.7 pg/mL and a median E2 level (β17-estradiol (E2); by week 4) of 4.1 pg/mL. For the same molecule, the half-life [1] was 840 to 900 min.
